The source of these data is ChEMBL document CHEMBL4184315, “Discovery of Inhibitor of Wnt Production 2 (IWP-2) and Related Compounds As Selective ATP-Competitive Inhibitors of Casein Kinase 1 (CK1) δ/ε” (J Med Chem, 2018).

The subject of data set [1] is HEK-293T. The data set can be described thus: Upregulation of renilla luciferase expression in HEK293T cells up to 5 uM after 22 hrs in presence of Wnt3A-conditioned medium by luminescence assay relative to control. The class given is cell-based. The conditions noted are these: human.
Data set [2] is described as follows: Selectivity ratio of IC50 for human CK1epsilon to IC50 for full-length rat GST-tagged CK1delta.
Data set [3] in a line: Antiproliferative activity against human Panc89 cells after 48 hrs by MTT assay. The class given is functional, cell-based.
Data set [4] has as its system HEK-293T. The data set can be described thus: Upregulation of renilla luciferase expression in HEK293T cells transfected with Wnt3A-expressing vector up to 5 uM after 22 hrs by luminescence assay relative to control. The class given is cell-based. The conditions noted are these: human.
Another data set has as its system HEK293. Kind of data set: Antiproliferative activity against human HEK293 cells after 48 hrs by MTT assay. The class given is functional, cell-based. The conditions noted are these: HEK293, 48 h. (Formazan colour is commonly taken as a measure of viable cells.)
Data set [5] has as its target T1, Casein kinase I isoform delta (Rattus norvegicus, UniProt Q06486). The data set can be described thus: Inhibition of rat recombinant CK1delta kinase domain using alpha-casein as substrate after 30 mins in presence of [gamma-32P]-ATP by Cherenkov counting method.
Data set [6] deals with Casein kinase I isoform delta (Rattus norvegicus) (UniProt Q06486). The data set can be described thus: Competitive inhibition of full-length rat GST-tagged CK1delta at IC50 using alpha-casein as substrate after 30 mins in presence of 10 to 500 uM ATP and [gamma-32P]-ATP by Cherenkov counting method.
Data set [7] in a line: Selectivity ratio of IC50 for human CK1epsilon to IC50 for rat recombinant CK1delta kinase domain.
The test system of a further data set is SW-620. Kind of data set: Antiproliferative activity against human SW620 cells after 48 hrs by MTT assay. The class given is functional, cell-based. The conditions noted are these: SW-620, 48 h.
The target of data set [8] is Casein kinase I isoform epsilon (Homo sapiens, UniProt P49674). The data set can be described thus: Inhibition of human recombinant CK1epsilon using alpha-casein as substrate after 30 mins in presence of [gamma-32P]-ATP by Cherenkov counting method.
The target of data set [9] is Serine/threonine-protein kinase tousled-like 2 (Homo sapiens) (UniProt Q86UE8). The data set can be described thus: Inhibition of recombinant human N-terminal FLAG/C-terminal HIS8-tagged TLK2 assessed as residual activity at 1 uM after 60 mins in presence of [gamma-33P]-ATP by scintillation counting method.
Data set [10] addresses Tyrosine-protein kinase ZAP-70 (Homo sapiens) (UniProt P43403). Kind of data set: Inhibition of recombinant human ZAP70 at 5 nM to 10 uM using poly (L-glutamic acid-L-tyrosine) as substrate after 30 mins in presence of [gamma-32P]-ATP by Cherenkov counting method.
A further data set is filed under the species Homo sapiens. The data set can be described thus: Inhibition of Wnt/beta-catenin signaling in HEK293T cells after 22 hrs in presence of Wnt3A-conditioned medium by Super-top flash reporter gene assay. The class given is cell-based. (Reporter assays use an easily measured gene product as a stand-in for the process of interest.)
Data set [11] addresses T2, Casein kinase I isoform delta (Homo sapiens, UniProt P48730). Kind of data set: Inhibition of human recombinant CK1delta assessed as residual activity at 1 uM after 60 mins in presence of [gamma-33P]-ATP by scintillation counting method.
Target sequence in this assay (P48730 whole entry, looked up, canonical isoform): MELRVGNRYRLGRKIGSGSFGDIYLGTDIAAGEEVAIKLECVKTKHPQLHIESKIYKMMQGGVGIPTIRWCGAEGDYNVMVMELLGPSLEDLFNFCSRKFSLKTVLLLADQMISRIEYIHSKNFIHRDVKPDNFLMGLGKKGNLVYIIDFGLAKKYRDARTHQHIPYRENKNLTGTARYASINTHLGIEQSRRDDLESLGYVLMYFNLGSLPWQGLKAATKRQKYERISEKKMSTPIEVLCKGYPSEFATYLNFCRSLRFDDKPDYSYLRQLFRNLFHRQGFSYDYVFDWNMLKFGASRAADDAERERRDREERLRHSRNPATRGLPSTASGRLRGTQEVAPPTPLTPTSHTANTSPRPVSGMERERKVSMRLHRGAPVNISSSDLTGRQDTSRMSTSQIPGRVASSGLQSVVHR
Data set [12] has as its target Casein kinase I isoform delta (Rattus norvegicus) (UniProt Q06486). Kind of data set: Inhibition of full-length rat GST-tagged CK1delta assessed as residual activity at 10 uM using alpha-casein as substrate after 30 mins in presence of [gamma-32P]-ATP by Cherenkov counting method.
Data set [13] addresses Casein kinase I isoform delta (Rattus norvegicus, UniProt Q06486, M82F). Kind of data set: Inhibition of rat GST-tagged CK1delta M82F mutant at 10 uM using alpha-casein as substrate after 30 mins in presence of [gamma-32P]-ATP by Cherenkov counting method.
In data set [14] the target is Casein kinase I isoform delta (Rattus norvegicus) (UniProt Q06486). Kind of data set: Ratio of IC50 for full-length rat GST-tagged CK1delta to IC50 for rat recombinant CK1delta kinase domain.
Data set [15] concerns the target T2, Casein kinase I isoform delta. Kind of data set: Inhibition of CK1delta in human PANC1 cells assessed as residual activity at 2.33 uM using GST-tagged p53 (1 to 64 residues) as substrate after 48 hrs in presence of [gamma-32P]-ATP by Cherenkov counting method. The class given is cell-based.
Target sequence in this assay (P48730 whole entry, looked up, canonical isoform): as above
The target in data set [16] is Serine/threonine-protein kinase tousled-like 2 (Homo sapiens) (UniProt Q86UE8). Kind of data set: Inhibition of recombinant human TLK2 at 5 nM to 10 uM using alpha-casein as substrate after 30 mins in presence of [gamma-32P]-ATP by Cherenkov counting method.
A further data set has as its system CAPAN-1. Kind of data set: Antiproliferative activity against human Capan1 cells after 48 hrs by MTT assay. The class given is functional, cell-based. The conditions noted are these: CAPAN-1, 48 h.
Data set [17] addresses Tyrosine-protein kinase ZAP-70 (Homo sapiens) (UniProt P43403). Kind of data set: Inhibition of recombinant human full length GST/His-tagged ZAP70 expressed in Sf9 cells assessed as residual activity at 1 uM after 60 mins in presence of [gamma-33P]-ATP by scintillation counting method.
A further data set deals with HT-29. The data set can be described thus: Antiproliferative activity against human HT-29 cells after 48 hrs by MTT assay. The class given is functional, cell-based. The conditions noted are these: HT-29, 48 h.
Data set [18] is described as follows: Antiproliferative activity against human A818-6 cells after 48 hrs by MTT assay. The class given is functional, cell-based.
Data set [19] addresses T3, Protein-serine O-palmitoleoyltransferase porcupine (Homo sapiens, UniProt Q9H237).
T3 sequence (Q9H237 whole entry): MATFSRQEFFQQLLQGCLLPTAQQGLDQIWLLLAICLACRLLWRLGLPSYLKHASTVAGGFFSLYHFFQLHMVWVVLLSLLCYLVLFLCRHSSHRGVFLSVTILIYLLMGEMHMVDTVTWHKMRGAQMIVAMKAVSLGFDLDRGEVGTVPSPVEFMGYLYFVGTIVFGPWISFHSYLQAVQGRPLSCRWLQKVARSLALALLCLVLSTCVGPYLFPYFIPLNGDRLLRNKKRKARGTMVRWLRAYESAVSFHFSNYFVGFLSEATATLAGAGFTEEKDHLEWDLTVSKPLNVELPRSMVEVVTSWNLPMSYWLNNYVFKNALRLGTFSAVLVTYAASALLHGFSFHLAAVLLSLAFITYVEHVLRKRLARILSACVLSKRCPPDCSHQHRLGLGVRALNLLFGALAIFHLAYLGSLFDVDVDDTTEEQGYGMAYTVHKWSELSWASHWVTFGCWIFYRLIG
Kind of data set: Inhibition of porcupine in HEK293T cells transfected with Wnt3A-expressing vector assessed as suppression of Wnt/beta-catenin signaling after 22 hrs by Super-top flash reporter gene assay. The class given is cell-based.

The target in data set [20] is Casein kinase I isoform delta (Rattus norvegicus) (UniProt Q06486). The data set can be described thus: Inhibition of rat recombinant CK1delta kinase domain assessed as residual activity at 10 uM using alpha-casein as substrate after 30 mins in presence of [gamma-32P]-ATP by Cherenkov counting method.
The subject of a further data set is PANC-1. The data set can be described thus: Antiproliferative activity against human PANC1 cells after 48 hrs by MTT assay. The class given is functional, cell-based. The conditions noted are these: PANC-1, 48 h.
Data set [21] addresses T1, Casein kinase I isoform delta. The data set can be described thus: Inhibition of full-length rat GST-tagged CK1delta using alpha-casein as substrate after 30 mins in presence of [gamma-32P]-ATP by Cherenkov counting method.
Another data set deals with MIA PaCa-2. The data set can be described thus: Antiproliferative activity against human MIAPaCa2 cells after 48 hrs by MTT assay. The class given is functional, cell-based. To be noted: MIA PaCa-2, 48 h.
In data set [22] the target is T4, Protein-serine O-palmitoleoyltransferase porcupine (Homo sapiens) (UniProt Q9H237).
T4 sequence (whole entry): T3 sequence (Q9H237 whole entry)
The data set can be described thus: Inhibition of porcupine in HEK293T cells transfected with Wnt3A-expressing vector assessed as suppression of Wnt/beta-catenin signaling at 5 uM after 22 hrs by Super-top flash reporter gene assay relative to control. The class given is cell-based.

Data set [23] deals with T2, Casein kinase I isoform delta. Kind of data set: Inhibition of CK1delta in HEK293T cells assessed as stimulation of Wnt/beta-catenin signaling after 22 hrs in presence of Wnt3A-conditioned medium by Super-top flash reporter gene assay. The class given is cell-based.
Target sequence in this assay (P48730 whole entry, canonical isoform): as the sequence (P48730 whole entry, looked up, canonical isoform) above
Data set [24] has the same target. Kind of data set: Inhibition of human recombinant CK1delta at 1 uM after 60 mins in presence of [gamma-33P]-ATP by scintillation counting method.
Target sequence in this assay (P48730 whole entry, looked up, canonical isoform): as the sequence (P48730 whole entry, looked up, canonical isoform) above
Data set [25] shares this target. The data set can be described thus: Inhibition of CK1delta in HEK293T cells assessed as stimulation of Wnt/beta-catenin signaling at 5 uM after 22 hrs in presence of Wnt3A-conditioned medium by Super-top flash reporter gene assay relative to control. The class given is cell-based.
Target sequence in this assay (P48730 whole entry, looked up, canonical isoform): as the sequence (P48730 whole entry, looked up, canonical isoform) above
Data set [26] has as its target T5, Casein kinase I isoform alpha (Bos taurus) (UniProt P67827).
T5 sequence (whole entry): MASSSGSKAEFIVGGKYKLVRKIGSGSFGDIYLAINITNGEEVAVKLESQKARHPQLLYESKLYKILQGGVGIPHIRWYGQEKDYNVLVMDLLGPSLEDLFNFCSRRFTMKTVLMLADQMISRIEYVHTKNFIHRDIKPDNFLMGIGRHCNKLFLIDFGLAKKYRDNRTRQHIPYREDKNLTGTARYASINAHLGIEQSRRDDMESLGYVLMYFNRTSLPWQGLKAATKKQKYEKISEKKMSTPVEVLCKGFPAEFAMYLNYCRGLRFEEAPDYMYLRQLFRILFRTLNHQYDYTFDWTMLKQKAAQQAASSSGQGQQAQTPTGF
Kind of data set: Inhibition of bovine GST-tagged CK1alpha at 1 uM using alpha-casein as substrate after 30 mins in presence of [gamma-32P]-ATP by Cherenkov counting method.

For data set [27], the target named is Casein kinase I isoform gamma-3 (Homo sapiens) (UniProt Q9Y6M4). The data set can be described thus: Inhibition of human GST-tagged CK1gamma3 at 1 uM using alpha-casein as substrate after 30 mins in presence of [gamma-32P]-ATP by Cherenkov counting method.
The test system of data set [28] is HEK-293T. The data set can be described thus: Toxicity in HEK293T cells at 0.5 to 5 uM after 6 to 22 hrs by CellTiter-Glo assay. The class given is cell-based. The conditions noted are these: human. For orientation: In ATP-based viability assays light output follows the ATP content of the culture.

Structures are written as SMILES. Active and inactive are the calls of the source. The rule behind the calls is not given here.

T1 sequence (Q06486 whole entry, the tested form may be a part, canonical isoform): as the sequence (P48730 whole entry, looked up, canonical isoform) above, with I381V counted along it
Chain of Casein kinase I isoform delta (Rattus norvegicus) (Q06486 whole entry, looked up, the tested form may be a part, canonical isoform): as the sequence (P48730 whole entry, looked up, canonical isoform) above, with I381V counted along it
Chain of Tyrosine-protein kinase ZAP-70 (Homo sapiens) (P43403 whole entry): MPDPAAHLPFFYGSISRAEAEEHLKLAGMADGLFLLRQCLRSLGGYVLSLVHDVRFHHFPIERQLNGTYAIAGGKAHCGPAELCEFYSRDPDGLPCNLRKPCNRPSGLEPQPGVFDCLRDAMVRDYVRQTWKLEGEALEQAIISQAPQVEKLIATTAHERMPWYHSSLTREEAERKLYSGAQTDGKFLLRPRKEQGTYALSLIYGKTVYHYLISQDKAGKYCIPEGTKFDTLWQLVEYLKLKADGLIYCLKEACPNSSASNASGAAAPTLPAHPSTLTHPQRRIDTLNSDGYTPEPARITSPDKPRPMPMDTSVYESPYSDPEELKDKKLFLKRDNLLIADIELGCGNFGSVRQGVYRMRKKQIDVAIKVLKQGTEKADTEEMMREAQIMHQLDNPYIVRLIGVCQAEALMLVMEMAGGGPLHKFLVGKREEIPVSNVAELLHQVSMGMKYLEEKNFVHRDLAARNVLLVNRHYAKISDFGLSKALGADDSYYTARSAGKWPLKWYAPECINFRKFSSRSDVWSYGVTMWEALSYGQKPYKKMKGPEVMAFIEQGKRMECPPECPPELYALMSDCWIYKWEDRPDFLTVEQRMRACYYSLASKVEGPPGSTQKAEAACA
Chain of Casein kinase I isoform delta (Rattus norvegicus, UniProt Q06486, M82F) (Q06486 whole entry M82F, the tested form may be a part, canonical isoform): as the sequence (P48730 whole entry, looked up, canonical isoform) above, with M82F, I381V counted along it
Chain of Casein kinase I isoform epsilon (P49674 whole entry, canonical isoform): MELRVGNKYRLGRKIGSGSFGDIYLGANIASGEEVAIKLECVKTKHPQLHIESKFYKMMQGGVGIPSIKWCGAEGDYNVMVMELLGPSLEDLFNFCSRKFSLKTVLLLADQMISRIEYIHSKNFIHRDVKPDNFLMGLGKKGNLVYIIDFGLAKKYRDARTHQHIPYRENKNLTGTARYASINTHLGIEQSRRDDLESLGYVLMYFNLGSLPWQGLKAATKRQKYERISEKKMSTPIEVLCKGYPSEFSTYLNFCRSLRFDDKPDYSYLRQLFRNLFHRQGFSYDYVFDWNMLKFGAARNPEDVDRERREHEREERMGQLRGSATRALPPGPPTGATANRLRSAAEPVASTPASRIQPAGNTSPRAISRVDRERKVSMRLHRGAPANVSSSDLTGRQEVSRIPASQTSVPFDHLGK
Chain of Serine/threonine-protein kinase tousled-like 2 (Homo sapiens) (Q86UE8 whole entry, looked up): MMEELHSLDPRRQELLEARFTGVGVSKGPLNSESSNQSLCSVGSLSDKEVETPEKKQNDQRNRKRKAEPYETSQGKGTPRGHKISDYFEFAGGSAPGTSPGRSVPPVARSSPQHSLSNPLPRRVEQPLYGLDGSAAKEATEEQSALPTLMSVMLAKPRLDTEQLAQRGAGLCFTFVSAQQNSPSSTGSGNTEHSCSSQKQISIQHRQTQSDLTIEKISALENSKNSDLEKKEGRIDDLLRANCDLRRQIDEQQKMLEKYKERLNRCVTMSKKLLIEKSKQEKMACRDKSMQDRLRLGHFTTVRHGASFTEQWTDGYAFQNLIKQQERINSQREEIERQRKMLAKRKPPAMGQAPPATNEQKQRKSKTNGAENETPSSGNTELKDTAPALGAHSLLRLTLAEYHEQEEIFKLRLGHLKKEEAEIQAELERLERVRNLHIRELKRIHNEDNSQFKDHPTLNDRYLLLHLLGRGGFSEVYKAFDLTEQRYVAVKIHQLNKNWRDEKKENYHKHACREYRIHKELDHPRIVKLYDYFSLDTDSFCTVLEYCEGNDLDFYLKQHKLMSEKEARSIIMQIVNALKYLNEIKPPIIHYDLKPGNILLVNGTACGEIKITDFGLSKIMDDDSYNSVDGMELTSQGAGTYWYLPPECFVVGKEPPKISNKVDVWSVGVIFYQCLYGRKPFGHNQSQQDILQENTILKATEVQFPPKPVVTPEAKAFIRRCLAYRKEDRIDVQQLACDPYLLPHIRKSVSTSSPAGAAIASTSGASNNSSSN
Chain of Casein kinase I isoform gamma-3 (Homo sapiens) (Q9Y6M4 whole entry, looked up, canonical isoform): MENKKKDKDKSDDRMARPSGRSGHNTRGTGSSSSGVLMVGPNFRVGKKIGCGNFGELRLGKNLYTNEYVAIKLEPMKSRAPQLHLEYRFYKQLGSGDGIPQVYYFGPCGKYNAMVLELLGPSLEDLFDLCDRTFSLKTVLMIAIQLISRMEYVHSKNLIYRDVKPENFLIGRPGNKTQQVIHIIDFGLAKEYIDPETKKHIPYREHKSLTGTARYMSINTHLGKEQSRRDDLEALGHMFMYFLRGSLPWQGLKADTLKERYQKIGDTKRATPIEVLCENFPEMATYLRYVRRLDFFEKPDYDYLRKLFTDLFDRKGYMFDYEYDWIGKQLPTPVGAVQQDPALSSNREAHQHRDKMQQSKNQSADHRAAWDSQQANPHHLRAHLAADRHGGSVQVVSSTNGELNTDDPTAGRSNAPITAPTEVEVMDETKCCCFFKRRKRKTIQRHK

The EC50 is the concentration that produces a half-maximal response. As a reminder, the IC50 is the concentration that gives 50% inhibition. Consider `Cc1ccc2nc(NC(=O)CSc3nc4c(c(=O)n3-c3ccccc3)SCC4)sc2c1`, for which the “fold change (FC)” value is listed as “<= 1.5” with HEK-293T [1] and “<= 1.3” with HEK-293T [4]. Besides, the Ratio IC50 in data set [2] was 4 to 7; in data set [7] it was < 17; in data set [14] it was 4. The EC50 in data set [3] is 3860 nM; with HEK293, 2760 nM; in the data set on SW-620, 1900 nM; in the data set on CAPAN-1 it was 2050 nM; with HT-29, 4670 nM; in data set [18], 8960 nM. Further, the EC50 in the data set with PANC-1 worked out at 2330 nM; in the data set with MIA PaCa-2, 1900 nM. In addition, the IC50 is 320 nM in [5]; 4030 nM in data set [8]; 40 nM in [13]; 157 nM in [19]; 930 nM in [21]. Also, the inhibition entry in [6] was “Active”. Also, the Activity was determined as 59% in data set [9]; 55% in data set [11]; 23% in [12]; 66% in data set [15]; 54% in data set [17]; 19% in data set [20]. Besides, the inhibition result (in [10]; in the data set listed under Homo sapiens; in data set [16]) was “inactive” each time. The Imax in data set [22] turned out to be 5.5%.

By Emax is commonly meant the size of the effect at its maximum, as opposed to the concentration needed. In the case of `COc1ccc(Cn2c(SCC(=O)Nc3nc4ccc(C(F)(F)F)cc4s3)nc3c(c2=O)SCC3)cc1`, the EC50 in [23] is 1470 nM. For the same molecule, the “fold change (FC)” value in the data set on HEK-293T [1] was “<= 1.5”; with HEK-293T [4], “<= 1.3”. The IC50 in data set [5] turned out to be 90 nM; in data set [8] it was 560 nM; in data set [13], 90 nM; in data set [19] it was 710 nM; in data set [21], 410 nM. The inhibition result in data set [24], in data set [26] and in data set [27] was “Active” throughout. Further, the Emax in [25] is 225%. In addition, the Imax in data set [22] came out at 38.8%.

Regarding `Fc1cccc(-n2cnc3c(NCc4nc5ccc(F)c(F)c5[nH]4)nc(N4CCOCC4)nc32)c1`, the Activity entry in the data set on HEK-293T [28] is listed as “Toxic”.
